According to US4808727A, “Imidazolium hydrogen carbonates” (Hoffmann-LaRoche Inc., priority 1986, dated 1989):

Legend:
[1] = tested on: Litomosoides carinii; assay: filaricidal activity in cotton rats infected with Litomosoides carinii (dead adult filaria in pleural cavity); assay type: in vivo, Litomosoides carinii in cotton rats (Sigmodon hispidus); details: sc, 1008 h, s.c., infected cotton rats treated 14 weeks after infection, dissected 42 days after treatment, dosage at which 90% of worms are dead, Probit analysis
Method: (§1) The filaricidal activity of the compounds of formula III can be determined, for example, on cotton rats (Sigmodon hispidus) which have been infected with Litomosoides carinii. The infection with L. carinii is transmitted by the blood-sucking mite (Bdellonyssus bacoti) in which the development of the microfilaria to infectious larvae takes place. The cotton rats are infected by exposing them to bites of infected mites. Fourteen (14) weeks after the infection, groups of 2-4 animals are treated subcutaneously with the compound to be tested. Forty-two (42) days after treatment with the compound to be tested, the experimental animals are dissected, whereby the adult filaria are removed from the pleural cavity. Living and dead or encapsulated worms are separated from one another and weighed. The filaricidal activity is expressed as the percentage proportion of dead macrofilaria per treatment group. The ED90 is then determined by means of Probit analysis using the values from different dosage groups. The ED90 is that dosage at which 90% of the worms removed from the pleural cavity are dead. In the following Table, there are compiled the results which have been obtained in the previously described test with representative members of the class of compound defined by formula III. Moreover, the Table contains data concerning the acute toxicity of some of these compounds in mg/per kg in the case of single oral administration to mice.

[2] = acute toxicity, single oral administration to mice; details: mouse, in vivo, p.o.
Method: as §1, with “Moreover, the Table contains data concerning the acute toxicity of some of these compounds in mg/per kg in the case of single oral administration to mice.” left out

| SMILES | ED90 [1] [mg/kg] | LD50 [2] [mg/kg] |
| --- | --- | --- |
| CC(C)c1n(N=Cc2ccc(N(C)C)cc2)cc[n+]1N=Cc1ccc(N(C)C)cc1.[Cl-] [Compound B, 1,3-bis[[p-(dimethylamino)benzylidene]amino]-2-isopropyl-imidazolium chloride] | 0.5 | – |
| Cc1n(N=Cc2ccc(N(C)C)cc2)cc[n+]1N=Cc1ccc(N(C)C)cc1.[Cl-] [Compound C, 1,3-bis[[p-(dimethylamino)benzylidene]amino]-2-methylimidazolium chloride] | 0.85 | – |
| CN(C)c1ccc(C=Nn2cc[n+](N=Cc3ccc(N(C)C)cc3)c2-c2ccccc2)cc1.[Cl-] [Compound D, 1,3-bis[[p-(dimethylamino)benzylidene]amino]-2-phenylimidazolium chloride] | < 1 | 1250 to 2500 |
| CN(C)C=Cc1n(N=Cc2ccc(N(C)C)cc2)cc[n+]1N=Cc1ccc(N(C)C)cc1.[Cl-] [Compound A, 1,3-bis[[p-(dimethylamino)benzylidene]amino]-2-[2-(dimethylamino)vinyl]imidazolium chloride] | 1 | 312 to 625 |
